Key:
Type in all cases: biochemical
[1] = biological target: T1, Hordeum HPPD variant L320H, P321A (Hordeum vulgare, UniProt O48604, L320H/P321A); assay: HPPD activity assay, Hordeum HPPD mutant L320H, P321A; details: normalized on wildtype
T1 construct: His6; made in house; host or cells: E. coli BL21 (DE3)
Description: (§1) HPPD produces homogentisic acid and CO2 from 4-hydroxyphenylpyruvate (4-HPP) and O2. The activity assay for HPPD is based on the analysis of homogentisic acid by reversed phase HPLC.
(§2) The assay mixture can contain 150 mM potassium phosphate buffer pH 7.0, 50 mM L-ascorbic acid, 1 μM FeSO4 and 7 μg of purified enzyme in a total volume of 1 ml. Inhibitors are dissolved in DMSO (dimethylsulfoxide) to a concentration of 20 mM or 0.5 mM, respectively. From this stock solution serial five-fold dilutions are prepared in DMSO, which are used in the assay. The respective inhibitor solution accounts for 1% of the assay volume. Thus, final inhibitor concentrations range from 200 μM to 2.5 nM or from 5 μM to 63 pM, respectively. After a preincubation of 30 min the reaction is started by adding 4-HPP to a final concentration of 0.1 mM. […]
(§3) Inhibitors are dissolved in DMSO (dimethylsulfoxide) to a concentration of 0.5 mM. […] IC50 values are calculated using non-linear regression.
(§4) Purified, mutant HPPD enzymes are obtained by the methods described above. […] Apparent michaelis constants (Km) and maximal reaction velocities (Vmax) are calculated by non-linear regression with the software GraphPad Prism 5 (GraphPad Software, La Jolla, USA) using a substrate inhibition model. […] Weighted means (by standard error) of Km and […] values are calculated from at least three independent experiments. […]

[2] = biological target: T2, Arabidopsis HPPD variant M335H, P336A, E363Q (Arabidopsis thaliana, UniProt P93836, E363Q/M335H/P336A); assay: HPPD activity assay, Arabidopsis HPPD mutant M335H, P336A, E363Q; details: normalized on wildtype
T2 construct: His6 (N); made in house; host or cells: E. coli BL21 (DE3)
T2 sequence (P93836 whole entry M335H/P336A/E363Q): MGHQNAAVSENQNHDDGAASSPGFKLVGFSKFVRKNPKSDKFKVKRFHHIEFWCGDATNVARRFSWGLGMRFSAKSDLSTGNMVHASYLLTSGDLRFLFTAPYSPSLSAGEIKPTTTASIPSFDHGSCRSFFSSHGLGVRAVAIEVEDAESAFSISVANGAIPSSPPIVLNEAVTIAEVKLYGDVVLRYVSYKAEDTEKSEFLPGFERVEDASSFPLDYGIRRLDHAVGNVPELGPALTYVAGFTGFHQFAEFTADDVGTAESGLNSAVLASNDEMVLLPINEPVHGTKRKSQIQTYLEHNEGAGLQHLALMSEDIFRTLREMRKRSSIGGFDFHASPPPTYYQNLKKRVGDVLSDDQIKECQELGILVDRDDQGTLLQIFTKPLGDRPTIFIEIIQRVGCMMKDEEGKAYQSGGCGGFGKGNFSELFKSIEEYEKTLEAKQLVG
Description: as §1, §2, §3, §4

[3] = biological target: T3, Hordeum HPPD variant V212L (Hordeum vulgare, UniProt O48604, A164G/R146V/R147D/R148G/V212L); assay: HPPD activity assay, Hordeum HPPD mutant V212L; details: normalized on wildtype
T3 construct: His6; made in house; host or cells: E. coli BL21 (DE3)
T3 sequence (O48604 whole entry R146V/R147D/R148G/A164G/V212L): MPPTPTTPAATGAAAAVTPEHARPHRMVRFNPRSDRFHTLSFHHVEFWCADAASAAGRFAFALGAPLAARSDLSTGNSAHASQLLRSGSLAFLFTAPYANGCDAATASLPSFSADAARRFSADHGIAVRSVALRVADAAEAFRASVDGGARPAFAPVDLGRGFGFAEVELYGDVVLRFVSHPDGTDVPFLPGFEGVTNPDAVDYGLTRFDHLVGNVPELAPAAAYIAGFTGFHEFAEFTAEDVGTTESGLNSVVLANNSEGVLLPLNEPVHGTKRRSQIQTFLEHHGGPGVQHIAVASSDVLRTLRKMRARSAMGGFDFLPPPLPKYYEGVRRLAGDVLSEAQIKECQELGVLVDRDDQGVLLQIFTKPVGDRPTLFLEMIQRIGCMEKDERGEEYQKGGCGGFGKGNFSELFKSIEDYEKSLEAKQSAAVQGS
Description: as §1, §2, §3, §4

Avena HPPD = assay: HPPD activity assay, Avena HPPD; details: normalized on Hordeum HPPD
Description: as §1
as §2, with “volume.” for “volume. Thus, final inhibitor concentrations range from 200 μM to 2.5 nM or from 5 μM to 63 pM, respectively. After a preincubation of 30 min the reaction is started by adding 4-HPP to a final concentration of 0.1 mM.”
(§5) Activities are normalized by setting the uninhibited enzyme activity to 100%. […] values are calculated using non-linear regression. […]
as §3
(§6) Using methods which are described in the above examples or well known in the art, purified, recombinant wildtype HPPD enzymes are characterized with respect to their kinetic properties and sensitivity towards HPPD inhibiting herbicides. Apparent michaelis constants (Km) and maximal reaction velocities (Vmax) are calculated by non-linear regression with the software GraphPad Prism 5 (GraphPad Software, La Jolla, USA) using a substrate inhibition model. […]

[4] = biological target: T4, Hordeum HPPD variant L334E (Hordeum vulgare, UniProt O48604, A164G/L334E/R146V/R147D/R148G); assay: HPPD activity assay, Hordeum HPPD mutant L334E; details: normalized on wildtype
T4 construct: His6; made in house; host or cells: E. coli BL21 (DE3)
T4 sequence (O48604 whole entry R146V/R147D/R148G/A164G/L334E): as the sequence (O48604 whole entry R146V/R147D/R148G/A164G/V212L) above, with L212V, L334E counted along it
Description: as §1, §2, §3, §4

[5] = biological target: T5, Hordeum HPPD variant L353M, P321R, V212I, L334E (Hordeum vulgare, UniProt O48604, L334E/L353M/P321R/V212I); assay: HPPD activity assay, Hordeum HPPD mutant L353M, P321R, V212I, L334E; details: normalized on wildtype
T5 construct: His6; made in house; host or cells: E. coli BL21 (DE3)
T5 sequence (O48604 whole entry R146V/R147D/R148G/A164G/V212I/P321R/L334E/L353M): as the sequence (O48604 whole entry R146V/R147D/R148G/A164G/V212L) above, with L212I, P321R, L334E, L353M counted along it
Description: as §1, §2, §3, §4

Synechococcus HPPD = assay: HPPD activity assay, Synechococcus HPPD; details: normalized on Hordeum HPPD
Description: as §1
as §2, with “volume.” for “volume. Thus, final inhibitor concentrations range from 200 μM to 2.5 nM or from 5 μM to 63 pM, respectively. After a preincubation of 30 min the reaction is started by adding 4-HPP to a final concentration of 0.1 mM.”
as §5, §3, §6

[6] = biological target: T6, Arabidopsis HPPD variant M335H (Arabidopsis thaliana, UniProt P93836, M335H); assay: HPPD activity assay, Arabidopsis HPPD mutant M335H; details: normalized on wildtype
T6 construct: His6 (N); made in house; host or cells: E. coli BL21 (DE3)
T6 sequence (P93836 whole entry M335H): as the sequence (P93836 whole entry M335H/P336A/E363Q) above, with A336P, Q363E counted along it
Description: as §1, §2, §3, §4

T1 sequence (O48604 whole entry R146V/R147D/R148G/A164G/L320H/P321A): as the sequence (O48604 whole entry R146V/R147D/R148G/A164G/V212L) above, with L212V, L320H, P321A counted along it

Structure (SMILES)	Normalized tolerance index (TI) [1]	Normalized tolerance index (TI) [2]	Normalized tolerance index (TI) [3]	Normalized tolerance index (TI) (Avena HPPD)	Normalized tolerance index (TI) [4]	Normalized tolerance index (TI) [5]	Normalized tolerance index (TI) (Synechococcus HPPD)	Normalized tolerance index (TI) [6]
CC1=NOC(c2c(Cl)ccc(C3=C(O)c4ncccc4N(CC(F)F)S3(=O)=O)c2Cl)C1 (centres unmarked) [Inhibitor 1, 3-[2,4-dichloro-3-(3-methyl-4,5-dihydroisoxazol-5-yl)phenyl]-1-(2,2-difluoroethyl)-2,2-dioxo-pyrido[3,2-c]thiazin-4-ol]	6.5	3	2.6	7.4	3.8	2.4	2.2	
O=S1(=O)C(c2c(Cl)cc(Cl)nc2Cl)=C(O)c2ncccc2N1CC(F)F [Inhibitor 2, 1-(2,2-difluoroethyl)-2,2-dioxo-3-(2,4,6-trichloro-3-pyridyl)pyrido[3,2-c]thiazin-4-ol]	3.7	1.2	0.5	5.2	2.2	3.8		0.2
